The results in this text go back to patent publication US6242438A, “3-Azetidinylalkylpiperidines or -pyrrolidines as tachykinin antagonists” (Pfizer Inc., priority 1996, dated 2001).

The target of this assay is T1, NK3 receptor (Cavia porcellus, UniProt P30098).
T1 construct: contractile effects of the selective NK3 receptor agonist senktide in the guinea-pig ileum; from tissue; host or cells: guinea-pig ileum
T1 sequence (P30098 1-440): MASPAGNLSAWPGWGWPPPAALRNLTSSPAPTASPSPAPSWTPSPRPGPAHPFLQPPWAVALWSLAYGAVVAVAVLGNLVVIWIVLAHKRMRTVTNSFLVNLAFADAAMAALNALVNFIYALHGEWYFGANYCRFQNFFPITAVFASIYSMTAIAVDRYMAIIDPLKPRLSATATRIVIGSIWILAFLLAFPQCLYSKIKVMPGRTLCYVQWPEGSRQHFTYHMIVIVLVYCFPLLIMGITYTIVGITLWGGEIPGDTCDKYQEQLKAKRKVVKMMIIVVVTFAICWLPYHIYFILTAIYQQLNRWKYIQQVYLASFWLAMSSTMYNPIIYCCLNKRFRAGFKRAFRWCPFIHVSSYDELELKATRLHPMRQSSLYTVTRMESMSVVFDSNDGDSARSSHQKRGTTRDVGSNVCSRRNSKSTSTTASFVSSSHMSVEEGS
As to the kind of experiment: NK3 receptor antagonist activity in vitro: antagonism of contractile effects of senktide in guinea-pig ileum. As to conditions: antagonism of contractile effects of the selective NK3 receptor agonist senktide, read-out: pIC50 for NK3 activity (converted). From the text:
The compounds of the formula (I) and their salts can be tested for NK3 receptor antagonist activity, in vitro, by testing their ability to antagonise the contractile effects of the selective NK3 receptor agonist senktide in the guinea-pig ileum using the method of Maggi et al, Br. J. Pharmacol., 101, 996-1000 (1 990).

Regarding `NS(=O)(=O)N1CCN(C2CN(CCCC3(c4ccc(Cl)c(Cl)c4)CCCN(C(=O)c4ccccc4)C3)C2)CC1` (stereo not shown) [Example 2], the IC50 was 3.98 nM.
